Values of other authors in US12569575B2, “Radiopaque particle compositions and uses thereof” (GUSTAVE ROUSSY TRANSFERT, priority 2021, dated 2026).
Converted amounts (≈) assume the structure as drawn. Counter-ions that a name gives are not always drawn. Like-named read-outs stand apart in the source and are kept apart here.

Conditions: for Solubility in DMSO: solvent DMSO

| Structure (SMILES) | Solubility in DMSO | other results |
| --- | --- | --- |
| CNC(=O)c1ccccc1Sc1ccc2c(/C=C/c3ccccn3)n[nH]c2c1 [Axitinib] | 77 mg/mL (≈ 199 mM) | – |
| COc1cc(Nc2c(C#N)cnc3cc(OCCCN4CCN(C)CC4)c(OC)cc23)c(Cl)cc1Cl [Bosutinib] | 100 mg/mL (≈ 189 mM) | – |
| COc1cc2nccc(Oc3ccc(NC(=O)C4(C(=O)Nc5ccc(F)cc5)CC4)cc3)c2cc1OC [Cabozantinib malate] | 18 mg/mL | – |
| C=CC(=O)Nc1cc2c(Nc3ccc(F)c(Cl)c3)ncnc2cc1OCCCN1CCOCC1 [Canertinib diHCl] | >5.6 mg/mL | Solubility in Water (solvent water): 10 mg/mL |
| Cc1nc(Nc2ncc(C(=O)Nc3c(C)cccc3Cl)s2)cc(N2CCN(CCO)CC2)n1 [Dasatinib] | 98 mg/mL (≈ 201 mM) | – |
| CN1CCN(c2ccc3nc(-c4c(N)c5c(F)cccc5[nH]c4=O)[nH]c3c2)CC1 [Dovitinib] | 40 mg/mL (≈ 102 mM) | – |
| COc1cccc2c1C(=O)c1c(O)c3c(c(O)c1C2=O)C[C@@](O)(C(=O)CO)C[C@@H]3O[C@H]1C[C@H](N)[C@H](O)[C@H](C)O1 [Doxorubicin HCl] | 100 mg/mL | – |
| COc1cccc2c1C(=O)c1c(O)c3c(c(O)c1C2=O)C[C@@](O)(C(=O)CO)C[C@@H]3O[C@H]1C[C@H](N)[C@@H](O)[C@H](C)O1 [Epirubicin HCl] | 10 mg/mL | Solubility in Water (solvent water): 10 mg/mL |
| C#Cc1cccc(Nc2ncnc3cc(OCCOC)c(OCCOC)cc23)c1 [Erlotinib HCl] | 20 mg/mL | – |
| COc1cc2ncnc(Nc3ccc(F)c(Cl)c3)c2cc1OCCCN1CCOCC1 [Gefitinib] | 20 mg/mL (≈ 44.8 mM) | – |
| Nc1ccn([C@@H]2O[C@H](CO)[C@@H](O)C2(F)F)c(=O)n1 [Gemcitabine] | 5 mg/mL (≈ 19 mM) | Solubility in Water (solvent water): 25 mg/mL (≈ 95 mM) |
| CC(=O)[C@]1(O)Cc2c(O)c3c(c(O)c2[C@@H](O[C@H]2C[C@H](N)[C@H](O)[C@H](C)O2)C1)C(=O)c1ccccc1C3=O [Idarubicin HCl] | 10 mg/mL | Solubility in Water (solvent water): 1 mg/mL |
| CS(=O)(=O)CCNCc1ccc(-c2ccc3ncnc(Nc4ccc(OCc5cccc(F)c5)c(Cl)c4)c3c2)o1.Cc1ccc(S(=O)(=O)O)cc1.Cc1ccc(S(=O)(=O)O)cc1 [Lapatinib toluene-sulfonate] | 200 mg/mL | – |
| C[C@]12O[C@H](C[C@]1(O)CO)n1c3ccccc3c3c4c(c5c6ccccc6n2c5c31)CNC4=O [Lestaurtinib] | 44 mg/mL (≈ 100 mM) | – |
| COc1cc2nccc(Oc3ccc(NC(=O)NC4CC4)c(Cl)c3)c2cc1C(N)=O [Levatinib mesylate] | 9 mg/mL | – |
| COc1cc2nc(N3CCN(C(=O)C4CCCO4)CC3)nc(N)c2cc1OC (centres unmarked) [Terazosin] | – | Solubility in Water (solvent water): 20 mg/mL (≈ 51.6 mM) |

Further lines, with some results ahead:

| Solubility in DMSO | Structure (SMILES) | other results |
| --- | --- | --- |
| >95 mg/mL | Cc1ccc(NC(=O)c2ccc(CN3CCN(C)CC3)cc2)cc1Nc1nc(-c2cccnc2)cs1 [Masitinib] | Solubility in Water (solvent water): <1.2 mg/mL |
| 50 mg/mL (≈ 94.4 mM) | Cc1cn(-c2cc(NC(=O)c3ccc(C)c(Nc4nccc(-c5cccnc5)n4)c3)cc(C(F)(F)F)c2)cn1 [Nilotinib] | – |
| 95 mg/mL (≈ 217 mM) | Cc1ccc(Nc2nccc(N(C)c3ccc4c(C)n(C)nc4c3)n2)cc1S(N)(=O)=O [Pazopanib] | – |
| 97 mg/mL (≈ 201 mM) | CNC(=O)c1cc(Oc2ccc(NC(=O)Nc3ccc(Cl)c(C(F)(F)F)c3)c(F)c2)ccn1 [Regorafenib] | – |
| 92 mg/mL (≈ 198 mM) | CNC(=O)c1cc(Oc2ccc(NC(=O)Nc3ccc(Cl)c(C(F)(F)F)c3)cc2)ccn1 [Sorafenib] | – |
| 100 mg/mL (≈ 251 mM) | CCN(CC)CCNC(=O)c1c(C)[nH]c(/C=C2\C(=O)Nc3ccc(F)cc32)c1C [Sunitinib] | Solubility in Water (in citrate buffer): 2 mg/mL (≈ 5.02 mM) |
| 30 mg/mL (≈ 63.1 mM) | COc1cc2c(Nc3ccc(Br)cc3F)ncnc2cc1OCC1CCN(C)CC1 [Vandetanib] | Solubility in Water (in pH 6.5): 5 mg/mL (≈ 10.5 mM) |
| 85 mg/mL | Clc1ccc(Nc2nnc(Cc3ccncc3)c3ccccc23)cc1 [Vatalanib diHCl] | Solubility in Water (solvent water): 10 mg/mL |
